Values joined by “and” are separate entries in the source; they are usually repeats but may differ in a detail not shown here. Equal values may be shown once.
Legend:
SCD1 [1] = molecular target: SCD1 (Rattus norvegicus (Rat), UniProt P07308); assay: SCD1 enzymatic assay in rat liver microsomes (RLM); type: biochemical; conditions: for inhibition at 1 µM / % Inh. @ 1 μM: 1 μM test compound
Method: Step 1: Preparation of Rat Liver Microsome (RLM)
Sprague Dawley rats from Charles River (200-225 g) underwent 2-cycle of fast-re-feeding (24-hour fast followed by 24-hour feeding with fat-free high carbohydrate diet, Research Diet, D00042802). The livers were removed and homogenized 1:4 (w/v) with pre-chilled, homogenizing buffer (10 mM Tris-HCl, 0.25 M sucrose, 1 mM EDTA, pH 7.4, supplemented with protease inhibitor cocktail). The homogenate was spun at 12,000×g for 15 min at 4° C. The supernatant was then re-centrifuged at 100,000×g for 60 min at 4° C. The pellet was re-suspended in 2 ml pre-chilled […] potassium phosphate buffer, pH 7.2, 10 mM EDTA at a concentration of 20 mg/ml. The resulting rat liver microsome (RLM) preparation was stored at […].
Step 2: SCD1 Enzymatic Assay in RLM:
The SCD1 enzymatic assay was done in a volume of 50 μL using 10 μg of RLM (prepared as described above) in a 96-well polypropylene plate (enzyme reaction buffer contains 0.1 M K-Phosphate Buffer, 10 mM ATP, 6 mM MgCl2, 1 mM CoA, 1 mM β-NADH, 1.6 mM L-glutathione, 20 μM Stearoyl-CoA). Stearoyl-[9,10-^3H]—CoA (ARC-0390, 1 mCi/mL, 60 Ci/mmol,) was added at a final concentration of 2 μCi/mL. Test compound was then added to the reaction mixture at the selected concentration. After incubation at room temperature for 2 hours, 5 μL 1 N HCl was added to stop the reaction, followed by addition of 25 μL of 10% charcoal. The reaction mixture was then transferred to 96-well Multiscreen plate (Millipore, Cat# MSFCN6B50). [^3H2O] was collected into Opti-plate (PE, Cat #6005290) by centrifuge, at 1,000 rpm for 2 minutes. 150 μL Microscint 40 (PE, cat #6013641) was then added to each well and counted on Topcount for [^3H] counts per minute (cpm). The measured cpm values were fitted with Sigmoidal dose-response curve fit with Graphpad Prism.

SCD1 [2] = molecular target: T1, SCD1 (Homo sapiens (Human), UniProt O00767); assay: SCD1 14C-palmitate assay in A431 cells; type: cell-based; conditions: read-out: A431 cells 14C-PA IC50
Method: Human epithelial carcinoma A431 cells were seeded at 400,000 cells per well in 48-well tissue culture plate and treated with 2 cycles of fasting in low glucose medium (DMEM, Cellgro #10-014-CV, 1 g/L glucose, 2% Charcoal Filtered FBS) for 24 hours; and re-feeding with high glucose medium for 24 hours (DMEM, Cellgro #10-013-CM, 4.5 g/L glucose, 10% Charcoal Filtered FBS and 0.05 mg/mL Lilly Humulin R, Cat.#, HI-210). Prior to running the assay, the cells were washed twice with high glucose medium (400 μL), followed by addition of 250 μL assay buffer (DMEM, 4.5 g/L glucose, 0.05 mg/mL Human Insulin, 0.1% Fatty Acid Free BSA) to each well. Then, 100 μL of assay buffer containing 20 μM Palmitic Acid, 0.05 μCi ^14C Palmitic Acid (Perkin Elmer, NEC075H) and test compound (at selected concentration) was added to each well. The cells were then Incubated at 37° C. and 5% CO2 tissue culture incubator for 4 hours, followed by extensive washes with pre-chilled PBS. The cell plates were then frozen at −20° C. overnight. After thawing out the plates, 100 μL of 1N KOH was added to each well and the plates were incubated at 37° C. for 30 mins. Cell lysates were transferred to 1 mL Eppendorf tubes and incubated at 95° C. for 1 hour, followed by addition of 10 μL formic acid and 220 μL acetonitrile. The tubes were then centrifuged at 12,000 rpm and the supernatant dried under N2 for 2-3 hours. Dried extract was re-suspended in 60 μL hexane and loaded onto TLC plates (pre-coated with 10% AgNO3 in acetonitrile). The TLC plates were placed into glass running chamber containing 200 mL running solution (100 mL running solution: 92.5 mL chloroform, 6 mL methanol, 750 μL acetic acid, 750 μL dH2O). After running, the TLC plates were air dried and scanned on Bioscan AR-2000 for quantification of ^14C-palmitioleate and ^14C-palmitate peaks. Area under the curve of the peaks were used to calculate product/substrate ratio, an index of SCD1 activity.

SCD1 [3] = molecular target: T1, SCD1; assay: SCD1 13C-palmitic acid assay in A431 cells; type: cell-based; conditions: read-out: A431 cells 13C-PA IC50
Method: Human epithelial carcinoma A431 cells were seeded at 100,000 cells/well in complete growth medium (DMEM, Cellgro #10-013-CM, 4.5 g/L glucose, 10% FBS) in the presence of 0.05 mg/mL human insulin (Hannas Pharmaceutical Supply Co Inc, Humanlin 100 U/ml, 4 mg/ml) in 96-well tissue culture plate. […] The cells were then returned to the tissue culture incubator (37° C. and 5% CO2) for 4 hrs. At the end of incubation, the cells were washed three times with 200 μL/well Hanks buffer (HBSS) and then stored at −20° C. until extraction.
For fatty acid extraction, after thawing out the plates, 40 μL of 1N KOH (containing 5 μM of internal standard 7,7,8,8-D4 palmitate) was added to each well and cell plates were incubated at 37° C. for 30 minutes. […] Acetonitrile (100 μL) was then added to extract fatty acids, followed by centrifugation at 3000 rpm for 10 minutes. 75 μL of extract was then transferred to a new glass vial in a 96-well cluster plate. 5 μL was injected for LC/MS analysis for detection of ^13C-palmitic acid and ^13C-palmitoleic acid. Formation of product ^13C-palmitoleic acid was determined as an index of SCD1 activity.
LC/MS analysis was performed as following. An Agilent 1100 Liquid Chromatographic System (Palo Alto, Calif.) consisting of a binary pump, a degasser and an autosampler was used. Separation of free fatty acids was performed on a Zorbax SB—C8 column (2.1×50 mm, particle size=3.5 μm). An isocratic elution was carried out with 10 mM triethylamine acetate in water:acetonitrile (3:7) at a flow rate of 0.3 mL/min. The column temperature was set at 30° C. and the sample injection volume was 5 μL. The LC run cycle was 4 min, A Micromass triple-quadrupole Quattro Micro mass […] (Waters, Beverly, Mass.) was interfaced with the LC system through a Z-spray electrospray ion source and was operated in the negative ion mode. Nitrogen was used as nebulizing gas, desolvation gas and cone curtain gas and argon was chosen as collision gas. The triple quadrupole MS source parameters were set as follows: capillary voltage, 3200V; cone voltage, 25V; extractor 2V, source temperature, 120° C.; desolvation temperature, 300° C.; cone gas flow, 50 L/h; and desolvation gas flow, 700 L/h. […] MassLynx software version 4.0 was used for system control and data processing. The signal of U—^13C-palmitoleic acid was normalized to an internal standard.

Chain of SCD1 (Rattus norvegicus (Rat), UniProt P07308) (P07308 whole entry): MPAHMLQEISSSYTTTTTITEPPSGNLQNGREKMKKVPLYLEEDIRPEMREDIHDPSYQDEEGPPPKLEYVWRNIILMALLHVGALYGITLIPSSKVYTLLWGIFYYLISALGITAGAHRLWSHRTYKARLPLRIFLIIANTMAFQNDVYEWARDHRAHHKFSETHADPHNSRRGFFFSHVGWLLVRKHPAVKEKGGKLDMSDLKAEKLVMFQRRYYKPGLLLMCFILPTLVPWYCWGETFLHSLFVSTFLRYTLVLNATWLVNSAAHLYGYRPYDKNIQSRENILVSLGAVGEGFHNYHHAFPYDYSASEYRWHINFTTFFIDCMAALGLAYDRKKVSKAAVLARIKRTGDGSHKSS
T1 sequence (O00767 whole entry): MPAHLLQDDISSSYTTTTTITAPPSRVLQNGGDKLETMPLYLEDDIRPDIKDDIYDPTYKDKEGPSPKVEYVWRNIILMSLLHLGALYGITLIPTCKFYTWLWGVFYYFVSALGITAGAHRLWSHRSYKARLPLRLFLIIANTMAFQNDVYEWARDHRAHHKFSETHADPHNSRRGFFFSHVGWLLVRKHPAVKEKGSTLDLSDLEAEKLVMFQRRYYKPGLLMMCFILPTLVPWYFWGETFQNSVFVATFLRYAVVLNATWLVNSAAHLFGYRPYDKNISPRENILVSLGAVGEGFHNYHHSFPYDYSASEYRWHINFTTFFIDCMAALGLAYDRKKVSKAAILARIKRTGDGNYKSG

IC50 (SCD1 [1]) | inhibition at 1 µM (SCD1 [1]) | IC50 (SCD1 [2]) | % Inh. @ 1 μM (SCD1 [1]) | IC50 (SCD1 [3]) | SMILES
170 nM | 84% | 376 nM and 384 nM |  |  | CNC(=O)c1cccc(NC(=O)N2CCC(n3ccc4ccccc43)CC2)c1 [Compound 2, 4-(1H-indol-1-yl)-N-(3-(methylcarbamoyl)phenyl)piperidine-1-carboxamide]
161 nM and 145 nM | 70% | 804 nM and 379 nM | 76% |  | Cc1csc(NC(=O)N2CCC(N3CCc4ccccc43)CC2)n1 [Compound 3, 4-(indolin-1-yl)-N-(4-methylthiazol-2-yl)piperidine-1-carboxamide]
7 nM and 20 nM | 97% |  | 99% | < 1 nM and 1 nM | O=C(Nc1nc2c(s1)CC(O)CC2)N1CCC(N2CCc3ccc(F)cc32)CC1 (stereo not drawn) [Compound 33, 4-(6-fluoroindolin-1-yl)-N-(6-hydroxy-4,5,6,7-tetrahydrobenzo[d]thiazol-2-yl)piperidine-1-carboxamide]
96 nM | 92% |  |  | 113 nM | O=C(CO)N1CCc2nc(NC(=O)N3CCC(N4CCc5ccc(F)cc54)CC3)sc2C1 [Compound 35, 4-(6-fluoroindolin-1-yl)-N-(5-(2-hydroxyacetyl)-4,5,6,7-tetrahydrothiazolo[5,4-c]pyridin-2-yl)piperidine-1-carboxamide]
29 nM | 91% |  |  | 16 nM | O=C(Nc1nc2c(s1)CNCC2)N1CCC(N2CCc3ccc(F)cc32)CC1 [Compound 36, 4-(6-fluoroindolin-1-yl)-N-(4,5,6,7-tetrahydrothiazolo[5,4-c]pyridin-2-yl)piperidine-1-carboxamide]
14 nM and 22 nM | 95% |  | 89% | 30 nM | O=C1NCCn2nc(NC(=O)N3CCC(N4CCc5ccc(F)cc54)CC3)cc21 [Compound 37, 4-(6-fluoroindolin-1-yl)-N-(4-oxo-4,5,6,7-tetrahydropyrazolo[1,5-a]pyrazin-2-yl)piperidine-1-carboxamide]
770 nM |  |  |  | 440 nM | O=C(Nc1nc2c(s1)CN(CCO)CC2)N1CCC(N2CCc3ccc(F)cc32)CC1 [Compound 38, 4-(6-fluoroindolin-1-yl)-N-(5-(2-hydroxyethyl)-4,5,6,7-tetrahydrothiazolo[5,4-c]pyridin-2-yl)piperidine-1-carboxamide]
88 nM and 59 nM | 86% |  | 86, 86% | 288 nM and 149 nM | NC(=O)c1cccc(NC(=O)N2CCC(n3ncc4c(F)cccc43)CC2)c1 [Compound 39, N-(3-carbamoylphenyl)-4-(4-fluoro-1H-indazol-1-yl)piperidine-1-carboxamide]
322 nM | 61% |  |  | 161 nM | O=C(Nc1cccc(CO)c1)N1CCC(N2CCc3ccc(F)cc32)CC1 [Compound 43, 4-(6-fluoroindolin-1-yl)-N-(3-(hydroxymethyl)phenyl)piperidine-1-carboxamide]
17 nM | 83% |  |  | 27 nM | O=C1OCc2ccc(NC(=O)N3CCC(N4CCc5ccc(F)cc54)CC3)cc21 [Compound 47, 4-(6-fluoroindolin-1-yl)-N-(3-oxo-1,3-dihydroisobenzofuran-5-yl)piperidine-1-carboxamide]
8 nM | 102% |  |  | 6 nM | O=C(Nc1ncc(CCO)s1)N1CCC(N2CCc3ccc(F)cc32)CC1 [Compound 50, 4-(6-fluoroindolin-1-yl)-N-(5-(2-hydroxyethyl)thiazol-2-yl)piperidine-1-carboxamide]
29 nM | 95% |  |  | 38 nM | O=C(Nc1nc(CCO)cs1)N1CCC(c2noc3ccc(F)cc23)CC1 [Compound 54, 4-(5-fluorobenzo[d]isoxazol-3-yl)-N-(4-(2-hydroxyethyl)thiazol-2-yl)piperidine-1-carboxamide]
11 nM | 92% |  |  | 30 nM | O=C(Nc1ncc(CCO)s1)N1CCC(c2noc3ccc(F)cc23)CC1 [Compound 55, 4-(5-fluorobenzo[d]isoxazol-3-yl)-N-(5-(2-hydroxyethyl)thiazol-2-yl)piperidine-1-carboxamide]
39 nM | 98% |  |  | 1 nM | O=C(Nc1nc2c(s1)CC(O)CC2)N1CCC(c2noc3ccc(F)cc23)CC1 (stereo not drawn) [Compound 60, 4-(5-fluorobenzo[d]isoxazol-3-yl)-N-(6-hydroxy-4,5,6,7-tetrahydrobenzo[d]thiazol-2-yl)piperidine-1-carboxamide]
204 nM | 99% |  |  | 17 nM | O=C(Nc1nc2c(s1)COCC2)N1CCC(N2CCc3ccc(F)cc32)CC1 [Compound 61, N-(6,7-dihydro-4H-pyrano[4,3-d]thiazol-2-yl)-4-(6-fluoroindolin-1-yl)piperidine-1-carboxamide]
347 nM | 68% |  |  | 76 nM | O=C(Nc1nc2c(s1)CCCC2)N1CCC(N2CCc3ccc(F)cc32)CC1 [Compound 62, 4-(6-fluoroindolin-1-yl)-N-(4,5,6,7-tetrahydrobenzo[d]thiazol-2-yl)piperidine-1-carboxamide]
85 nM | 55% |  |  | 176 nM | O=C(Nc1nc2c(s1)COCC2)N1CCC(c2noc3ccc(F)cc23)CC1 [Compound 63, N-(6,7-dihydro-4H-pyrano[4,3-d]thiazol-2-yl)-4-(5-fluorobenzo[d]isoxazol-3-yl)piperidine-1-carboxamide]

Source: patent US9238658B2, “Substituted piperidinyl-carboxamide derivatives useful as SCD 1 inhibitors” (Janssen Pharmaceutica NV, priority 2011, dated 2016)
